# Reference: PubChem BioAssay AID212 (DTP/NCI, 2004)
# Where “and” joins values, the source holds several entries; their conditions need not be identical. Equal values may be shown once. Records with an inconclusive call do not appear.
# System: BDF1 mice, colon carcinoma 38 sc, T/C %
# Experiment: NCI In Vivo Anticancer Drug Screen. Data for tumor model Colon Carcinoma 38 (subcutaneous) in B6D2F1 (BDF1) mice
# Procedure, shortened: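 Transplantable tumor in mice; compound-treated vs vehicle-dosed controls. Measured survival or tumor size; value = T ÷ C.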
# [1] = endpoint: median tumor weight (est.), dose: 50.0 mg/kg/injection, schedule: Q07DX002 (ip), vehicle: suspension in saline, higher = larger tumour
# [2] = endpoint: median tumor weight (est.), dose: 100.0 mg/kg/injection, schedule: Q07DX002 (ip), vehicle: suspension in saline, higher = larger tumour
# [3] = endpoint: median tumor weight (est.), dose: 200.0 mg/kg/injection, schedule: Q07DX002 (ip), vehicle: suspension in saline, higher = larger tumour
# [4] = endpoint: median tumor weight (est.), dose: 25.0 mg/kg/injection, schedule: Q07DX003 (ip), vehicle: saline, higher = larger tumour
# [5] = endpoint: median tumor weight (est.), dose: 50.0 mg/kg/injection, schedule: Q07DX003 (ip), vehicle: saline, higher = larger tumour
# [6] = endpoint: median tumor weight (est.), dose: 12.5 mg/kg/injection, schedule: Q07DX002 (ip), vehicle: saline with Tween-80, higher = larger tumour
# [7] = endpoint: median tumor weight (est.), dose: 100.0 mg/kg/injection, schedule: Q07DX002 (ip), vehicle: saline with Tween-80, higher = larger tumour
smiles,measurement,setting,value
N=C(N)CCNC(=O)C1CCC(N)=N1 (stereo not drawn),T/C,"endpoint: median tumor weight (est.), dose: 3.38 mg/kg/injection, schedule: Q07DX002 (ip), vehicle: saline, higher = larger tumour",97 % of control
same,T/C,"endpoint: median tumor weight (est.), dose: 6.75 mg/kg/injection, schedule: Q07DX002 (ip), vehicle: saline, higher = larger tumour",115 % of control
same,T/C,"endpoint: median tumor weight (est.), dose: 13.5 mg/kg/injection, schedule: Q07DX002 (ip), vehicle: saline, higher = larger tumour",120 % of control
same,T/C,"endpoint: median tumor weight (est.), dose: 27.0 mg/kg/injection, schedule: Q07DX002 (ip), vehicle: saline, higher = larger tumour",91 % of control
CC1(C)COCN1COC1CCCCC1,T/C,"endpoint: median tumor weight (est.), dose: 25.0 mg/kg/injection, schedule: Q07DX002 (ip), vehicle: suspension in saline, higher = larger tumour",84 % of control
same,T/C,[1],93 % of control
same,T/C,[2],97 % of control
same,T/C,[3],64 % of control
CC(=O)C(O)N1C(=O)C=CC1=O (stereo not drawn),T/C,"endpoint: median tumor weight (est.), dose: 0.62 mg/kg/injection, schedule: Q07DX003 (ip), vehicle: saline, higher = larger tumour",109 % of control
same,T/C,"endpoint: median tumor weight (est.), dose: 1.25 mg/kg/injection, schedule: Q07DX003 (ip), vehicle: saline, higher = larger tumour",76 % of control
same,T/C,"endpoint: median tumor weight (est.), dose: 2.5 mg/kg/injection, schedule: Q07DX003 (ip), vehicle: saline, higher = larger tumour",111 % of control
same,T/C,"endpoint: median tumor weight (est.), dose: 5.0 mg/kg/injection, schedule: Q07DX003 (ip), vehicle: saline, higher = larger tumour",108 % of control
C/C=C1\C[C@@H]2C(OC)Nc3cc(O)c(OC)cc3C(=O)N2C1 (stereo partly drawn),T/C,"endpoint: median tumor weight (est.), dose: 0.06 mg/kg/injection, schedule: Q07DX002 (ip), vehicle: saline, higher = larger tumour",121 % of control
same,T/C,"endpoint: median tumor weight (est.), dose: 0.12 mg/kg/injection, schedule: Q07DX002 (ip), vehicle: saline, higher = larger tumour",98 % of control
same,T/C,"endpoint: median tumor weight (est.), dose: 0.12 mg/kg/injection, schedule: Q07DX002 (ip), vehicle: suspension in saline, higher = larger tumour",122 % of control
same,T/C,"endpoint: median tumor weight (est.), dose: 0.25 mg/kg/injection, schedule: Q07DX002 (ip), vehicle: saline, higher = larger tumour",102 % of control
same,T/C,"endpoint: median tumor weight (est.), dose: 0.25 mg/kg/injection, schedule: Q07DX002 (ip), vehicle: suspension in saline, higher = larger tumour",108 % of control
same,T/C,"endpoint: median tumor weight (est.), dose: 0.5 mg/kg/injection, schedule: Q07DX002 (ip), vehicle: saline, higher = larger tumour",102 % of control
same,T/C,"endpoint: median tumor weight (est.), dose: 0.5 mg/kg/injection, schedule: Q07DX002 (ip), vehicle: suspension in saline, higher = larger tumour",166 % of control
same,T/C,"endpoint: median tumor weight (est.), dose: 1.0 mg/kg/injection, schedule: Q07DX002 (ip), vehicle: saline, higher = larger tumour",105 % of control
same,T/C,"endpoint: median tumor weight (est.), dose: 1.0 mg/kg/injection, schedule: Q07DX002 (ip), vehicle: suspension in saline, higher = larger tumour",84 % of control
COC(OC(CO)C(O)S(=O)(=O)O)C(O)S(=O)(=O)O (stereo not drawn),T/C,"endpoint: median tumor weight (est.), dose: 12.5 mg/kg/injection, schedule: Q07DX002 (ip), vehicle: saline, higher = larger tumour",113 % of control
same,T/C,"endpoint: median tumor weight (est.), dose: 12.5 mg/kg/injection, schedule: Q07DX003 (ip), vehicle: saline, higher = larger tumour",123 % of control
same,T/C,"endpoint: median tumor weight (est.), dose: 25.0 mg/kg/injection, schedule: Q07DX002 (ip), vehicle: saline, higher = larger tumour",108 % of control
same,T/C,[4],100 % of control
same,T/C,"endpoint: median tumor weight (est.), dose: 50.0 mg/kg/injection, schedule: Q07DX002 (ip), vehicle: saline, higher = larger tumour",123 % of control and 105 % of control
same,T/C,[5],97 % of control
same,T/C,"endpoint: median tumor weight (est.), dose: 100.0 mg/kg/injection, schedule: Q07DX002 (ip), vehicle: saline, higher = larger tumour",95 % of control and 105 % of control
same,T/C,"endpoint: median tumor weight (est.), dose: 100.0 mg/kg/injection, schedule: Q07DX003 (ip), vehicle: saline, higher = larger tumour",110 % of control
same,T/C,"endpoint: median tumor weight (est.), dose: 200.0 mg/kg/injection, schedule: Q07DX002 (ip), vehicle: saline, higher = larger tumour",80 % of control and 105 % of control
same,T/C,"endpoint: median tumor weight (est.), dose: 200.0 mg/kg/injection, schedule: Q07DX003 (ip), vehicle: saline, higher = larger tumour",98 % of control
same,T/C,"endpoint: median tumor weight (est.), dose: 400.0 mg/kg/injection, schedule: Q07DX002 (ip), vehicle: saline, higher = larger tumour",85 % of control and 86 % of control
same,T/C,"endpoint: median tumor weight (est.), dose: 400.0 mg/kg/injection, schedule: Q07DX003 (ip), vehicle: saline, higher = larger tumour",50 % of control
C[C@]12C=CC(=O)C=C1CC[C@@H]1[C@@H]2C(=O)C[C@@]2(C)[C@H]1CC[C@]2(O)C(=O)CO,T/C,"endpoint: median tumor weight (est.), dose: 12.5 mg/kg/injection, schedule: Q07DX002 (ip), vehicle: Klucel (hydroxypropylcellulose) (HPC), higher = larger tumour",108 % of control
same,T/C,"endpoint: median tumor weight (est.), dose: 25.0 mg/kg/injection, schedule: Q07DX002 (ip), vehicle: Klucel (hydroxypropylcellulose) (HPC), higher = larger tumour",115 % of control
same,T/C,"endpoint: median tumor weight (est.), dose: 25.0 mg/kg/injection, schedule: Q07DX003 (ip), vehicle: Klucel (hydroxypropylcellulose) (HPC), higher = larger tumour",97 % of control
same,T/C,"endpoint: median tumor weight (est.), dose: 50.0 mg/kg/injection, schedule: Q07DX002 (ip), vehicle: Klucel (hydroxypropylcellulose) (HPC), higher = larger tumour",93 % of control and 102 % of control
same,T/C,"endpoint: median tumor weight (est.), dose: 50.0 mg/kg/injection, schedule: Q07DX003 (ip), vehicle: Klucel (hydroxypropylcellulose) (HPC), higher = larger tumour",100 % of control
same,T/C,"endpoint: median tumor weight (est.), dose: 100.0 mg/kg/injection, schedule: Q07DX002 (ip), vehicle: Klucel (hydroxypropylcellulose) (HPC), higher = larger tumour",110 % of control
same,T/C,"endpoint: median tumor weight (est.), dose: 100.0 mg/kg/injection, schedule: Q07DX003 (ip), vehicle: Klucel (hydroxypropylcellulose) (HPC), higher = larger tumour",76 % of control
same,T/C,"endpoint: median tumor weight (est.), dose: 200.0 mg/kg/injection, schedule: Q07DX002 (ip), vehicle: Klucel (hydroxypropylcellulose) (HPC), higher = larger tumour",81 % of control and 101 % of control
same,T/C,"endpoint: median tumor weight (est.), dose: 200.0 mg/kg/injection, schedule: Q07DX003 (ip), vehicle: Klucel (hydroxypropylcellulose) (HPC), higher = larger tumour",88 % of control
same,T/C,"endpoint: median tumor weight (est.), dose: 400.0 mg/kg/injection, schedule: Q07DX003 (ip), vehicle: Klucel (hydroxypropylcellulose) (HPC), higher = larger tumour",45 % of control
same,T/C,"endpoint: median tumor weight (est.), dose: 800.0 mg/kg/injection, schedule: Q07DX002 (ip), vehicle: Klucel (hydroxypropylcellulose) (HPC), higher = larger tumour",60 % of control
same,T/C,"endpoint: median tumor weight (est.), dose: 1200.0 mg/kg/injection, schedule: Q07DX002 (ip), vehicle: Klucel (hydroxypropylcellulose) (HPC), higher = larger tumour",80 % of control
O=c1n(CC2CO2)c(=O)n(CC2CO2)c(=O)n1CC1CO1 (stereo not drawn),T/C,"endpoint: median tumor weight (est.), dose: 12.0 mg/kg/injection, schedule: Q07DX002 (ip), vehicle: saline with Tween-80, higher = larger tumour",121 % of control
same,T/C,[6],170 % of control
same,T/C,"endpoint: median tumor weight (est.), dose: 12.5 mg/kg/injection, schedule: Q07DX002 (ip), vehicle: suspension in saline, higher = larger tumour",101 % of control and 88 % of control and 89 % of control
same,T/C,[4],43 % of control
same,T/C,"endpoint: median tumor weight (est.), dose: 50.0 mg/kg/injection, schedule: Q07DX002 (ip), vehicle: saline with Tween-80, higher = larger tumour",119 % of control and 102 % of control
same,T/C,[1],66 % of control and 42 % of control and 62 % of control
same,T/C,[5],36 % of control
same,T/C,[7],42 % of control and 65 % of control
same,T/C,[2],81 % of control
same,T/C,[3],81 % of control
OCC1OC(n2cnc3c2NC=NC[C@H]3O)CC1O (stereo partly drawn),T/C,"endpoint: median tumor weight (est.), dose: 0.63 mg/kg/injection, schedule: Q07DX002 (ip), vehicle: saline, higher = larger tumour",70 % of control
same,T/C,"endpoint: median tumor weight (est.), dose: 1.25 mg/kg/injection, schedule: Q07DX002 (ip), vehicle: saline, higher = larger tumour",83 % of control
same,T/C,"endpoint: median tumor weight (est.), dose: 2.0 mg/kg/injection, schedule: Q07DX002 (ip), vehicle: saline, higher = larger tumour",68 % of control
same,T/C,"endpoint: median tumor weight (est.), dose: 2.5 mg/kg/injection, schedule: Q07DX002 (ip), vehicle: saline, higher = larger tumour",43 % of control
same,T/C,"endpoint: median tumor weight (est.), dose: 5.0 mg/kg/injection, schedule: Q07DX002 (ip), vehicle: saline, higher = larger tumour",90 % of control
same,T/C,"endpoint: median tumor weight (est.), dose: 8.0 mg/kg/injection, schedule: Q07DX002 (ip), vehicle: saline, higher = larger tumour",67 % of control
same,T/C,"endpoint: median tumor weight (est.), dose: 10.0 mg/kg/injection, schedule: Q07DX002 (ip), vehicle: saline, higher = larger tumour",45 % of control
same,T/C,"endpoint: median tumor weight (est.), dose: 16.0 mg/kg/injection, schedule: Q07DX002 (ip), vehicle: saline, higher = larger tumour",74 % of control
Nc1ccc(C(=O)Nc2ccccc2N)cc1,T/C,[6],121 % of control
same,T/C,"endpoint: median tumor weight (est.), dose: 25.0 mg/kg/injection, schedule: Q01DX007 (ip), vehicle: saline with Tween-80, higher = larger tumour",160 % of control
same,T/C,"endpoint: median tumor weight (est.), dose: 25.0 mg/kg/injection, schedule: Q01DX007 (oral), vehicle: saline with Tween-80, higher = larger tumour",58 % of control
same,T/C,"endpoint: median tumor weight (est.), dose: 25.0 mg/kg/injection, schedule: Q07DX002 (ip), vehicle: saline with Tween-80, higher = larger tumour",67 % of control
same,T/C,"endpoint: median tumor weight (est.), dose: 50.0 mg/kg/injection, schedule: Q01DX007 (ip), vehicle: saline with Tween-80, higher = larger tumour",71 % of control
same,T/C,"endpoint: median tumor weight (est.), dose: 50.0 mg/kg/injection, schedule: Q01DX007 (oral), vehicle: saline with Tween-80, higher = larger tumour",78 % of control
same,T/C,"endpoint: median tumor weight (est.), dose: 100.0 mg/kg/injection, schedule: Q01DX007 (ip), vehicle: saline with Tween-80, higher = larger tumour",123 % of control
same,T/C,[7],121 % of control
same,T/C,"endpoint: median tumor weight (est.), dose: 200.0 mg/kg/injection, schedule: Q01DX007 (oral), vehicle: saline with Tween-80, higher = larger tumour",76 % of control
same,T/C,"endpoint: median tumor weight (est.), dose: 200.0 mg/kg/injection, schedule: Q07DX002 (ip), vehicle: saline with Tween-80, higher = larger tumour",84 % of control
same,T/C,"endpoint: median tumor weight (est.), dose: 400.0 mg/kg/injection, schedule: Q01DX007 (oral), vehicle: saline with Tween-80, higher = larger tumour",105 % of control
CO[C@H]1C[C@](C)(O)Cc2cc3c(c(O)c21)C(=O)c1c(O)cc2c(c1C3=O)O[C@@H]1O[C@@]2(C)[C@H](O)[C@@H](N(C)C)[C@@H]1O,T/C,"endpoint: median survival time, dose: 72.0 mg/kg/injection, schedule: Q07DX003 (sc), vehicle: other, higher = longer survival",166 % of control
same,T/C,"endpoint: median tumor weight (est.), dose: 12.5 mg/kg/injection, schedule: Q07DX002 (ip), vehicle: other, higher = larger tumour",69 % of control
same,T/C,"endpoint: median tumor weight (est.), dose: 25.0 mg/kg/injection, schedule: Q07DX002 (ip), vehicle: other, higher = larger tumour",21 % of control and 41 % of control
same,T/C,"endpoint: median tumor weight (est.), dose: 50.0 mg/kg/injection, schedule: Q07DX002 (ip), vehicle: other, higher = larger tumour",1 % of control
